Experimental data as given in US8460689B2, “Oral care method and kit” (3M Innovative Properties Company, priority 2009, dated 2013).

Key:
[1] = Evaluation of Precipitate Formation with CHG; format: physicochemical; settings: 1:1 mixture of excipient solution with 3.72% CHG, visual within 30 minutes; for Precipitation at Low pH: low pH per sample
Protocol: It is thought that some excipients (inactives) may form a CHG complex, which is visible as a precipitate. Thus, CHG which complexes with an excipient, forming a precipitate would not be available for antimicrobial efficacy. The purpose of the precipitation formation testing was to observe the potential of an excipient to form a precipitates with CHG under the following test conditions.
Sample excipient solutions were prepared with distilled water to various concentrations of excipients according to Tables 12-16, below. The pH of the solutions was then adjusted to both a low pH and a high pH using either gluconic acid or NaOH. […] After combining the CHG solution with the excipient solution, the vial of the mixture was briefly swirled to mix. The mixtures were visually assessed for the presence/formation of a precipitate within 30 minutes. The results are shown in Tables P1-P5, where “Y” means precipitate was observed; “N” means no precipitate was observed; “*1” means the mixture could not be tested because a gel-like mass was formed when adding gluconic acid to reduce the pH down; and “*2” means the mixture could not be tested because it started to thicken when adding NaOH to raise the pH.

[2] = test system: MRSA (methicillin-resistant Staphylococcus aureus), ATCC 33592; experiment: Test Method B2 - Second Antimicrobial Efficacy Testing; format: cell-based; settings: 4 minutes
Protocol: A 0.22% wt/wt solution of CHG was prepared at a pH of 6. All pH adjustments were made using either gluconic acid or sodium hydroxide. Each of the above excipient solutions (5 mL) were mixed with an equal amount (5 mL) of CHG solution (0.22% wt/wt). The mixtures were allowed to stand for 15 minutes at ambient conditions, along with a control CHG solution. All of these samples were centrifuged at 14,000 g for 15 minutes. After centrifugation, supernatant was carefully transferred to a new vial and submitted for Antimicrobial Efficacy testing (TEST METHOD B2) and HPLC testing (TEST METHOD C2), see below.
For Test Method B2 the above Test Method B was followed, with the following changes: • 1. Bacteria was MRSA (methicillin-resistant Staphylococcus aureus), ATCC 33592, instead of P. aeruginosa. • 2. Inoculum level was approximately 6.2 logs, instead of 5.8 logs. • 3. Incubation time with MRSA was 4 minutes, instead of 2.5 minutes. • 4. Neutralizer was Neutralizing Buffer, instead of D/E Neutralizing Broth. • 5. Incubation of the Petrifilm plates was 38 hours, instead of 43 hours.

In the case of `O=P(O)(O)O` [P16, H3PO4], the “Precipitation at High pH” value [1] is reported as “Y” and the “Precipitation at Low pH” value [1] is reported as “Y”.
In the case of `O=C1[N-]S(=O)(=O)c2ccccc21.[Na+]` [Sodium Saccharin, Benzoic Sulphimide Sodium Salt], the “Log Reduction of MRSA” value ([2]; supernatant of 0.50 wt % excipient solution mixed with equal amount of 0.22 wt % CHG) is reported as 0.0.
For `[Cl-].[Na+]` [P13, NaCl], the “Precipitation at High pH” value [1] was “Y” and the “Precipitation at Low pH” value [1] was “Y”.
For `[Cl-].[K+]` [P12, KCL], the “Precipitation at High pH” value [1] was “N” and the “Precipitation at Low pH” value [1] was “N”.
With `C/C=C/C=C/C(=O)[O-].[K+]` [P4, Potassium Sorbate] the “Precipitation at High pH” value [1] was “Y”.
For `O=C(O)CC(O)(CC(=O)O)C(=O)O` [P19, Citric Acid], the “Precipitation at High pH” value [1] was “Y” and the “Precipitation at Low pH” value [1] was “Y”.
For `O=C([O-])c1ccccc1.[Na+]` [P7, Sodium Benzoate], the “Precipitation at High pH” value [1] was “Y” and the “Precipitation at Low pH” value [1] was “Y”.
With `N=C(NCCCCCCNC(=N)NC(=N)Nc1ccc(Cl)cc1)NC(=N)Nc1ccc(Cl)cc1.O=C(O)[C@H](O)[C@@H](O)[C@H](O)[C@H](O)CO.O=C(O)[C@H](O)[C@@H](O)[C@H](O)[C@H](O)CO` [CHG Control, 1,11-hexamethylene bis[5-(p-chlorophenyl)biguanide]di-D-gluconate, reference compound] the “Log Reduction of MRSA” value ([2]; CHG 0.22 wt % control, excipient 0.0 wt %) was 3.0.
For `[Cl-].[K+]` [P11, KCL], the “Precipitation at High pH” value [1] was “Y” and the “Precipitation at Low pH” value [1] was “Y”.
For `O=C1NS(=O)(=O)c2ccccc21.[Na]` [P1, Sodium Saccharin], the “Precipitation at High pH” value [1] was “Y” and the “Precipitation at Low pH” value [1] was “Y”.
In the case of `[Cl-].[K+]` [P10, KCL], the “Precipitation at High pH” value [1] is reported as “Y” and the “Precipitation at Low pH” value [1] is reported as “Y”.
